# Measurements as given in patent publication US11400058B2, “Intravenous formulations of coenzyme Q10 (CoQ10) and methods of use thereof” (Berg LLC, priority 2010, dated 2022).
# Marks after values point to notes of the source that are not given here.
# Assay: 4-week repeat-dose toxicology study in rats with 2-week recovery (Study 20000328)
# [1] = 250 mg/kg F, end of dosing, animals of 10
# [2] = 250 mg/kg F, end of recovery, animals of 5
# [3] = 250 mg/kg M, end of dosing, animals of 10
# [4] = 250 mg/kg M, end of recovery, animals of 5
compound,measurement,setting,value
"COC1=C(OC)C(=O)C(C/C=C(\C)CC/C=C(\C)CC/C=C(\C)CC/C=C(\C)CC/C=C(\C)CC/C=C(\C)CC/C=C(\C)CC/C=C(\C)CC/C=C(\C)CCC=C(C)C)=C(C)C1=O [CoQ10, Coenzyme Q10]",Spleen Histiocytic Infiltration,[1],10
same,"Spleen Histiocytic Infiltration, Marked",[1],2
same,"Spleen Histiocytic Infiltration, Mild",[1],1
same,"Spleen Histiocytic Infiltration, Moderate",[1],7
same,ALT,"250 mg/kg F, end of recovery",63* IU/L
same,APPT,"250 mg/kg F, end of recovery",14.7 s
same,AST,"250 mg/kg F, end of recovery",153* IU/L
same,"Body Weight, percent difference from controls","250 mg/kg F, end of recovery",−12.6%
same,"Food Consumption, percent difference from controls","250 mg/kg F, end of recovery",+0.7%
same,GGT,"250 mg/kg F, end of recovery",0.58* IU/L
same,"Liver weight (absolute), percent difference from controls","250 mg/kg F, end of recovery",+19.6%
same,"Spleen weight (absolute), percent difference from controls","250 mg/kg F, end of recovery",+82.7* %
same,Adrenal Gland Vacuolation,[2],5
same,"Adrenal Gland Vacuolation, Marked",[2],1
same,"Adrenal Gland Vacuolation, Mild",[2],0
same,"Adrenal Gland Vacuolation, Minimal",[2],0
same,"Adrenal Gland Vacuolation, Moderate",[2],4
same,Gross Pathology: Enlarged Spleen,[2],2
same,Gross Pathology: Pale Iliac Lymph Node,[2],4
same,Gross Pathology: Pale Liver,[2],5
same,Gross Pathology: Pale Ovaries,[2],4
same,Gross Pathology: Pale Pancreatic Lymph Node,[2],3
same,Liver Focal Necrosis,[2],1
same,"Liver Focal Necrosis, Mild",[2],1
same,"Liver Focal Necrosis, Minimal",[2],0
same,Liver Histiocytic Infiltration,[2],5
same,"Liver Histiocytic Infiltration, Mild",[2],1
same,"Liver Histiocytic Infiltration, Minimal",[2],0
same,"Liver Histiocytic Infiltration, Moderate",[2],4
same,Liver Multifocal Necrosis,[2],1
same,"Liver Multifocal Necrosis, Mild",[2],0
same,"Liver Multifocal Necrosis, Moderate",[2],1
same,Liver Vacuolation,[2],5
same,"Liver Vacuolation, Mild",[2],0
same,"Liver Vacuolation, Minimal",[2],0
same,"Liver Vacuolation, Moderate",[2],5
same,"Lymph Node, Man. Histiocytic Infiltration",[2],5
same,"Lymph Node, Man. Histiocytic Infiltration, Mild",[2],3
same,"Lymph Node, Man. Histiocytic Infiltration, Minimal",[2],1
same,"Lymph Node, Man. Histiocytic Infiltration, Moderate",[2],1
same,"Lymph Node, Mes. Histiocytic Infiltration",[2],5
same,"Lymph Node, Mes. Histiocytic Infiltration, Mild",[2],5
same,"Lymph Node, Mes. Histiocytic Infiltration, Minimal",[2],0
same,Ovary Histiocytic Infiltration,[2],5
same,"Ovary Histiocytic Infiltration, Mild",[2],4
same,"Ovary Histiocytic Infiltration, Minimal",[2],0
same,"Ovary Histiocytic Infiltration, Moderate",[2],1
same,Spleen Histiocytic Infiltration,[2],5
same,"Spleen Histiocytic Infiltration, Marked",[2],0
same,"Spleen Histiocytic Infiltration, Mild",[2],4
same,"Spleen Histiocytic Infiltration, Minimal",[2],1
same,"Spleen Histiocytic Infiltration, Moderate",[2],0
same,Died or Sacrificed Moribund,"250 mg/kg M, animals of 15",0
same,ALT,"250 mg/kg M, end of dosing",35* IU/L
same,APPT,"250 mg/kg M, end of dosing",14.7* seconds
same,AST,"250 mg/kg M, end of dosing",113* IU/L
same,"Body Weight, percent difference from controls","250 mg/kg M, end of dosing",−17.6* %
same,Eosinophils,"250 mg/kg M, end of dosing",0.14* 10^3/cmm
same,Erythrocytes,"250 mg/kg M, end of dosing",6.23 10^6/cmm
same,"Food Consumption, percent difference from controls","250 mg/kg M, end of dosing",−16.4* %
same,GGT,"250 mg/kg M, end of dosing",0.16 IU/L
same,Hematocrit,"250 mg/kg M, end of dosing",40.4* %
same,Hemoglobin,"250 mg/kg M, end of dosing",12.9* g/dL
same,Leukocytes,"250 mg/kg M, end of dosing",15.55* 10^3/cmm
same,"Liver weight (absolute), percent difference from controls","250 mg/kg M, end of dosing",+11.0%
same,Lymphocytes,"250 mg/kg M, end of dosing",12.58 10^3/cmm
same,Neutrophils,"250 mg/kg M, end of dosing",2.13* 10^3/cmm
same,"Spleen weight (absolute), percent difference from controls","250 mg/kg M, end of dosing",+65.9%
same,Adrenal Gland Vacuolation,[3],10
same,"Adrenal Gland Vacuolation, Mild",[3],5
same,"Adrenal Gland Vacuolation, Minimal",[3],0
same,"Adrenal Gland Vacuolation, Moderate",[3],5
same,"Bone Marrow, Sternum Hyperplasia",[3],4
same,"Bone Marrow, Sternum Hyperplasia, Mild",[3],4
same,"Bone Marrow, Sternum Hyperplasia, Minimal",[3],0
same,Gross Pathology: Enlarged Pancreatic Lymph Nodes,[3],5
same,Gross Pathology: Pale Adrenal,[3],4
same,Gross Pathology: Pale Liver,[3],10
same,Gross Pathology: Pale Lymph Nodes,[3],8
same,Gross Pathology: Pale Pituitary,[3],3
same,Gross Pathology: Pale SQ Skin,[3],0
same,Injection Site Mononuclear Cell Infiltration,[3],10
same,"Injection Site Mononuclear Cell Infiltration, Marked",[3],1
same,"Injection Site Mononuclear Cell Infiltration, Mild",[3],0
same,"Injection Site Mononuclear Cell Infiltration, Minimal",[3],0
same,"Injection Site Mononuclear Cell Infiltration, Moderate",[3],9
same,Liver Focal Necrosis,[3],0
same,"Liver Focal Necrosis, Minimal",[3],0
same,Liver Histiocytic Infiltration,[3],10
same,"Liver Histiocytic Infiltration, Mild",[3],7
same,"Liver Histiocytic Infiltration, Minimal",[3],1
same,"Liver Histiocytic Infiltration, Moderate",[3],2
same,Liver Vacuolation,[3],10
same,"Liver Vacuolation, Mild",[3],10
same,"Liver Vacuolation, Minimal",[3],0
same,"Lymph Node, Man. Histiocytic Infiltration",[3],9
same,"Lymph Node, Man. Histiocytic Infiltration, Mild",[3],3
same,"Lymph Node, Man. Histiocytic Infiltration, Minimal",[3],0
same,"Lymph Node, Man. Histiocytic Infiltration, Moderate",[3],6
same,"Lymph Node, Mes. Histiocytic Infiltration",[3],9
same,"Lymph Node, Mes. Histiocytic Infiltration, Mild",[3],7
same,"Lymph Node, Mes. Histiocytic Infiltration, Minimal",[3],1
same,"Lymph Node, Mes. Histiocytic Infiltration, Moderate",[3],1
same,"Skin, Dermis Histiocytic Infiltration",[3],0
same,"Skin, Dermis Histiocytic Infiltration, Marked",[3],0
same,"Skin, Dermis Histiocytic Infiltration, Mild",[3],0
same,"Skin, Dermis Histiocytic Infiltration, Moderate",[3],0
same,"Skin, SQ Histiocytic Infiltration",[3],0
same,"Skin, SQ Histiocytic Infiltration, Mild",[3],0
same,Spleen Histiocytic Infiltration,[3],10
same,"Spleen Histiocytic Infiltration, Marked",[3],1
same,"Spleen Histiocytic Infiltration, Mild",[3],0
same,"Spleen Histiocytic Infiltration, Moderate",[3],9
same,ALT,"250 mg/kg M, end of recovery",96* IU/L
same,APPT,"250 mg/kg M, end of recovery",15.3* seconds
same,AST,"250 mg/kg M, end of recovery",213* IU/L
same,"Body Weight, percent difference from controls","250 mg/kg M, end of recovery",−15.0* %
same,"Food Consumption, percent difference from controls","250 mg/kg M, end of recovery",−14.1%
same,GGT,"250 mg/kg M, end of recovery",0.42 IU/L
same,"Liver weight (absolute), percent difference from controls","250 mg/kg M, end of recovery",+7.6%
same,"Spleen weight (absolute), percent difference from controls","250 mg/kg M, end of recovery",+38.7* %
same,Adrenal Gland Vacuolation,[4],4
same,"Adrenal Gland Vacuolation, Marked",[4],0
same,"Adrenal Gland Vacuolation, Mild",[4],2
same,"Adrenal Gland Vacuolation, Minimal",[4],0
same,"Adrenal Gland Vacuolation, Moderate",[4],2
same,Gross Pathology: Enlarged Spleen,[4],4
same,Gross Pathology: Pale Iliac Lymph Node,[4],3
same,Gross Pathology: Pale Liver,[4],5
same,Gross Pathology: Pale Pancreatic Lymph Node,[4],3
same,Liver Focal Necrosis,[4],2
same,"Liver Focal Necrosis, Mild",[4],1
same,"Liver Focal Necrosis, Minimal",[4],0
same,Liver Histiocytic Infiltration,[4],5
same,"Liver Histiocytic Infiltration, Mild",[4],4
same,"Liver Histiocytic Infiltration, Minimal",[4],1
same,"Liver Histiocytic Infiltration, Moderate",[4],0
same,Liver Multifocal Necrosis,[4],1
same,"Liver Multifocal Necrosis, Mild",[4],1
same,"Liver Multifocal Necrosis, Moderate",[4],0
same,Liver Vacuolation,[4],5
same,"Liver Vacuolation, Mild",[4],0
same,"Liver Vacuolation, Minimal",[4],0
same,"Liver Vacuolation, Moderate",[4],5
same,"Lymph Node, Man. Histiocytic Infiltration",[4],5
same,"Lymph Node, Man. Histiocytic Infiltration, Mild",[4],1
same,"Lymph Node, Man. Histiocytic Infiltration, Minimal",[4],2
same,"Lymph Node, Man. Histiocytic Infiltration, Moderate",[4],2
same,"Lymph Node, Mes. Histiocytic Infiltration",[4],5
same,"Lymph Node, Mes. Histiocytic Infiltration, Mild",[4],5
same,"Lymph Node, Mes. Histiocytic Infiltration, Minimal",[4],0
same,Spleen Histiocytic Infiltration,[4],5
same,"Spleen Histiocytic Infiltration, Marked",[4],1
same,"Spleen Histiocytic Infiltration, Mild",[4],3
same,"Spleen Histiocytic Infiltration, Minimal",[4],0
same,"Spleen Histiocytic Infiltration, Moderate",[4],1
